Series [1] deals with azido-HaloTag protein (GST-HaloTag protein on GSH-Sepharose resin). Description: Fluorescence labeling of azido-HaloTag protein by SPDC reaction, SDS-PAGE fluorescence imaging. The format is biochemical.
A further series concerns HEK293 cells. Description: Cytotoxicity assay in living cells. The format is cell-based. The following applies: 0 to 80 μM, incubation overnight. As to the method:
Finally, cytotoxicity assay of diyne 3 was performed in living cells. HEK293 cells were incubated and diyne 3 was added to the cells in a concentration of 0 to 80 μM, followed by incubation overnight. Morphological images of the cells after incubation, which were taken under a phase-contrast microscope and visualized with Adobe Photoshop CS2, are shown in FIG. 10.

For series [2], the system named is azido-glycoconjugates on the surface of HEK293 cells. Description: Fluorescence labeling of azido-glycoconjugates on the surface of living cells. The format is cell-based.

Like-named read-outs stand apart in the source and are kept apart here.

Regarding `C1#Cc2ccccc2C#Cc2ccccc21` [diyne 3, sym-dibenzo-1,5-cyclooctadiene-3,7-diyne], the “fluorescence labeling efficiency of azido-HaloTag protein” value in series [1] (sequential SPDC reaction: diyne 3, wash, then TESRA-PEO3-azide (9)) was “approximately 45%”. Further, the “total labeling efficiency of TESRA-labeled HaloTag protein” value in series [1] (simultaneous SPDC reaction with TESRA-PEO3-azide (9), relative to TESRA-HaloTag ligand (10) labeling taken as almost 100%) is given as roughly 40%. Besides, the “cytotoxicity (cell morphology, phase-contrast microscope)” value in the series with HEK293 cells is on record as “did not show cytotoxicity”. The “reaction time at which labeling efficiency became maximum” value in series [2] (40 μM diyne 3, HEK293 cells with azido-glycoconjugates, 0 to 48 minutes) is on record as “approximately 20 minutes”. Further, in series [2] (HEK293 cells cultured with Ac4ManNAz), the “fluorescence labeling of cell surface azido-glycoconjugates (result in words)” value is “a reliable fluorescence signal was detected”.
Take `O=C(NCCNC(=S)Nc1ccc2c(c1)C(=O)OC21c2ccc(O)cc2Oc2cc(O)ccc21)OC1Cc2ccccc2C#Cc2ccccc21` (stereo not drawn) [monoyne 22, 1-[2-{(11,12-didehydro-5,6-dihydrodibenzo[a,e]cycloocten-5-yl)oxycarbonylamino}ethyl]-3-(5-fluoresceinyl)thiourea]: the “fluorescence labeling of cell surface azido-glycoconjugates (result in words)” value in series [2] is “substantial difference in fluorescence labeling efficiency between the SPDC reaction and the single click reaction was hardly observed”.
